One test has as its system SJNB-1. Put plainly: IncuCyte live-cell imaging, antiproliferative effect. In kind it is cell-based. The settings on record: Homo sapiens, 72 h, read-out: Cell GI50 72h. On the procedure:
The use of human cell lines in this study was approved by the Ethics Committee of Ghent University Hospital (EC/029-2022/sds). Human neuroblastoma cell lines NGP, IMR-32, SJNB-8, SK-N-BE(2)-C, SJNB-1, SK-N-SH and SK-N-AS, as well as benign immortalized cell lines RPE and HEK293T were either bought commercially or obtained through research laboratories. The neuroblastoma cell lines and HEK293T were cultured in RPMI 1640 medium (Gibco, #52400041) supplemented with 10% fetal bovine serum (Sigma-Aldrich, #F0804), 2 mM L-glutamine (Gibco, #11548876), and 100 IU/mL penicillin/streptomycin (Gibco, #11548876). RPE cells were cultured in DMEM-F12 (Gibco, #11594426), supplemented with 10% fetal bovine serum, 2 mM L-glutamine and 100 IU/mL penicillin/streptomycin. Screening for mycoplasma contamination occurred routinely on the cells. […]
Neuroblastoma cells were seeded in 384-well plates at different densities ranging from 1200 to 5000 cells/well and allowed to adhere overnight. […] Compound treatment was performed using the D300e Digital Dispenser (Tecan) in duplicate or triplicate and cell confluency was monitored over time using the IncuCyte Live-cell imaging system (Sartorius). […] Mean normalized confluences were calculated from 3 individual experiments. […]

The target of test [1] is T1, NanoLuc-AURKA (Homo sapiens, UniProt O14965).
T1 construct: Plasmids encoding full-length wild-type AURKA fused to Nano-Luc; host or cells: HEK293T
T1 sequence (O14965 1-403): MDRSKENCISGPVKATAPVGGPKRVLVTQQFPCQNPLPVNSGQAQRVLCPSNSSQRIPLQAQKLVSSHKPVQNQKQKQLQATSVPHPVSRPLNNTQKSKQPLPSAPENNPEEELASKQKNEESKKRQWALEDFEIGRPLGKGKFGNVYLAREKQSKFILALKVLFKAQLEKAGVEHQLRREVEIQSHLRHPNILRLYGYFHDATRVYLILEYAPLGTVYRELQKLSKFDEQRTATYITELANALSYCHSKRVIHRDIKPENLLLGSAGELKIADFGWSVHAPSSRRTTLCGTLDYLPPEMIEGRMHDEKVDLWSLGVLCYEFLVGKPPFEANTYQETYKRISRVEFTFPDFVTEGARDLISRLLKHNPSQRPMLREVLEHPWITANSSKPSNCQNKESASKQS
Put plainly: NanoBRET target engagement, permeabilized mode. The test is classed as binding. The note with it: permeabilized HEK293T; read-out: NanoBRET IC50, tracer displacement from NanoLuc-AURKA. The method, then:
(§1) The NanoBRET Target Engagement Assay (Promega) was performed according to the recommended instructions from the manufacturer. Plasmids encoding full-length wild-type AURKA fused to Nano-Luc via AURKA’s C-terminus (Promega, #NV1041) were transfected into HEK293T cells using FuGENE HD (Promega, #E2312). […] The plate was mixed at 900 rpm for 15 s, using an orbital shaker. For the permeabilized-mode, digitonin (Sigma-Aldrich, #D141) was additionally added at a final concentration of 50 μg/mL. Test compounds were subsequently administered in duplicate using the D300e digital dispenser (Tecan), followed by incubation for 2 h (37 °C, 5% CO2). To measure BRET, nanoglo substrate and extracellular nanoluc inhibitor (only in live-mode) (Promega #N2540) were added, and luminescence was measured using the GloMax Discover Microplate Reader (Promega) with a luminescence filter pair of 450 nm (BP filter, donor) and 600 nm (LP filter, acceptor). The NanoBRET ratio was calculated using the following formula: BRET ratio = 1000*[(acceptor signal/donor signal)with tracer – (acceptor signal/donor signal)no tracer]. Relative BRET ratios (%) were generated by normalizing to the negative DMSO control. The experiment was performed once with 2 replicate samples.
(§2) All dose–response curves were computed on GraphPad Prism using the Variable Slope (four parameters) equation. Absolute half-maximal degradation (DC50), growth inhibitory (GI50) and enzymatic inhibitory (IC50) concentrations, as well as inhibition constants (Ki) were derived from dose–response curves via interpolation. Statistical tests were performed on GraphPad Prism and detailed in the figure legends. Unless otherwise stated, “n” in the figure legends indicates the number of independent experiments conducted at different times.

Test [2] addresses T1, NanoLuc-AURKA. The test is described as follows: NanoBRET target engagement, live (intact) cells. The test is classed as cell-based. The note with it: intact HEK293T. The method, then: as §1, §2
For orientation: In BRET a luciferase serves as donor, and the signal depends on an acceptor being close.

Structures are written as SMILES.

For the compound `Cc1cc(Nc2ccc(F)c(CC3(C(=O)N4CCC(CN5CCN(c6ccc(N7CCC(=O)NC7=O)cn6)CC5)CC4)CCN(Cc4cccc(Cl)c4F)CC3)n2)n[nH]1` [SK4454], in the test with SJNB-1, the GI50 was 13.4 µM. Besides, the IC50 on NanoLuc-AURKA [1] was around 0.02 µM. Further, the “NanoLuc-AURKA engagement in intact cells (in words)” value at NanoLuc-AURKA [2] is “able to bind NanoLuc-AURKA in intact cells”.
For `Cc1cc(Nc2ccc(F)c(CC3(C(=O)N4CCC(F)(CN5CCN(c6ccc(N7CCC(=O)NC7=O)cn6)CC5)CC4)CCN(Cc4cccc(Cl)c4F)CC3)n2)n[nH]1` [SK5527], in that order: 8.63 µM, around 0.02 µM and “able to bind NanoLuc-AURKA in intact cells”.

A word on the GI50: it is the concentration giving 50% growth inhibition. Usually IC50 stands for the concentration that inhibits the measured activity by half.

These data come from paper PMC12670405, “Second-Generation AURKA-Targeting PROTACs: Structural Optimization toward in Vivo Degradation in Neuroblastoma” (Journal of Medicinal Chemistry, 2025).
